Each block holds one compound with its values, some of them ahead of it.
Columns and labels:
[1] = Solubility plot in 2-MeTHF:n-heptane; type: physicochemical; conditions: 2-MeTHF:n-heptane solvent mixture, organic solvent or mixture; mixture of 2-MeTHF:n-heptane, at least a 2:1 ratio
Excerpt: In order to further simplify the reaction workup transition, water-miscible THF was replaced with water immiscible 2-MeTHF as the reaction co-solvent with n-heptane, thus eliminating the need for MTBE in the workup. […] This afforded a relatively wide solubility range for both the reaction and the workup while still keeping the solvent volumes at reasonable levels for the telescoped steps.

[2] = Solubility of drug product in water; type: physicochemical; conditions: crystalline solid
Excerpt: (§1) In the clinic, protocol-specified portions of drug product are suspended in a vehicle consisting of commercially available medium viscosity USP carboxymethylcellulose sodium (CMC) in Sterile Water for Injection (SWFI). CMC is a chemically stable compound that is commonly used in oral pharmaceutical formulations and appears on the FDA list of substances that are Generally Recognized As Safe (GRAS).

[3] = Compatibility study: stability of drug product suspended in CMC vehicle; type: physicochemical; conditions: suspension in carboxymethylcellulose sodium (CMC) vehicle
Excerpt: as §1

[4] = Relative humidity stressing of Form A, XRPD read-out; type: physicochemical; conditions: 7 days
Experimental: (§2) XRPD patterns were collected with an Inel XRG-3000 diffractometer. An incident beam of Cu Kα radiation was produced using a fine-focus tube and a parabolically graded multilayer mirror. Prior to the analysis, a silicon standard (NIST SRM 640c) was analyzed to verify the Si 111 peak position. A specimen of the sample was packed into a thin-walled glass capillary, and a beam-stop was used to minimize the background from air. Diffraction patterns were collected in transmission geometry using Windif v. 6.6 software and a curved position-sensitive Equinox detector with a 2θ range of 120°.
(§3) XRPD patterns were collected with a PANALYTICAL® X'Pert PRO MPD diffractometer using an incident beam of Cu radiation produced using an Optix long, fine-focus source. An elliptically graded multilayer mirror was used to focus Cu Kα X-rays through the specimen and onto the detector. Prior to the analysis, a silicon specimen (NIST SRM 640c) was analyzed to verify the Si 111 peak position. A specimen of the sample was sandwiched between 3 μm-thick films and analyzed in transmission geometry. A beam-stop and short antiscatter extension were used to minimize the background generated by air. Soller slits for the incident and diffracted beams were used to minimize broadening from axial divergence. Diffraction patterns were collected using a scanning position-sensitive detector (X'CELERATOR® located 240 mm from the specimen and Data Collector software v. 2.2b.
(§4) Form A crystal form of Compound 1 was subjected to (1) mechanical stressing experiments and (2) relative humidity stressing experiments, where the material was subjected to different levels of relative humidity (R.H.) and temperature.

[5] = Mechanical stressing of Form A, XRPD read-out; type: physicochemical
Experimental: as §2, §3, §4

[6] = Material B/Form A relative humidity stressing (conversion study); type: physicochemical; conditions: approximately 75% R.H. and 41° C.

solubility [1]: > 100 mg/mL | solubility in water [2]: sparingly soluble | stability of the drug product suspended in CMC [3]: at least 48 hours
SMILES: OB(O)c1ccc(-c2cccc(F)c2)cc1F [Compound 1, 3,3′-difluorobiphenyl-4-ylboronic acid]

melting point: 238 to 241 °C
SMILES: Fc1cccc(-c2ccc(B3OB(c4ccc(-c5cccc(F)c5)cc4F)OB(c4ccc(-c5cccc(F)c5)cc4F)O3)c(F)c2)c1 [Compound 2, 2,4,6-tris(3,3′-difluorobiphenyl-4-yl)-1,3,5,2,4,6-trioxatriborinane]

stability to humidity stressing ([4]; 75% R.H., about 40° C.): stable | stability to humidity stressing ([4]; 75% R.H., room temperature): stable | XRPD Result after relative humidity stressing ([4]; 75% RH, 40° C.): Form A | XRPD Result after relative humidity stressing ([4]; 75% RH, RT): Form A | stability to humidity stressing ([4]; 97% R.H., room temperature): stable | XRPD Result after relative humidity stressing ([4]; 97% RH, RT): Form A | XRPD Result after mechanical stressing ([5]; compress, 10,000 lb, 5 min., no solvent): Form A, low | XRPD Result after mechanical stressing ([5]; mill, 30 Hz, 20 min., ACN): Form A | XRPD Result after mechanical stressing ([5]; mill, 30 Hz, 20 min., MEK): Form A | XRPD Result after mechanical stressing ([5]; mill, 30 Hz, 20 min., THF): Form A | XRPD Result after mechanical stressing ([5]; mill, 30 Hz, 20 min., no solvent): Form A, low
SMILES: OB(O)c1ccc(-c2cccc(F)c2)cc1F [Form A, 3,3′-difluorobiphenyl-4-ylboronic acid]

crystal form conversion under humidity stressing ([6]; after 4, 7, and 14 days): The same mixture
SMILES: OB(O)c1ccc(-c2cccc(F)c2)cc1F [Material B, 3,3′-difluorobiphenyl-4-ylboronic acid]
crystal form conversion under humidity stressing ([6]; as early as 1 day): convert to a mixture of Material B and Form A

From patent US9951089B2, “Methods of treating a fatty acid amide hydrolase-mediated condition” (INFINITY PHARMACEUTICALS, INC., priority 2010, dated 2018)
